≈ marks a conversion by molar mass, not a printed value. Where two headings read alike, the source gives them in different places.
Key:
Type in all cases: cell-based
S. aureus strains = experiment: MIC against S. aureus strains (Table M7); conditions: for MIC: Staphylococcus aureus
Method in brief: (§1)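 MICs determined by CLSI standard broth dilution procedures, with azithromycin run as control macrolide.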

A. baumannii strains = experiment: MIC against A. baumannii strains (Table M8); conditions: for MIC: Acinetobacter baumannii, BAA747, A. baumannii BAA747-1
E. coli strains = experiment: MIC against E. coli strains (Table M7); conditions: Escherichia coli, ATCC25922, E. coli ATCC 25922
Method in brief: as §1

[1] = system: SA101 S. aureus ATCC29213; experiment: broth dilution MIC, S. aureus SA101; conditions: Staphylococcus aureus, ATCC29213, SA101 S. aureus ATCC29213; read-out: MIC
From the text: (§2) We have collected MIC data for a total of 50 novel macrolides that this platform has produced against over 21 unique strains of B. subtilis, E. coli, S. aureus, S. pneumoniae, and H. influenzae, including several multidrug-resistant strains, with a special focus on macrolide resistant mechanisms (vide supra). Azithromycin was included as a control macrolide. CLSI standard procedures for broth dilution MIC determination were used. […] These genotypes can be constitutive or inducible. The finding that C4-epi (unnatural) isomers of the “azaketolide” macrolide class have enhanced activities relative to C4 natural isomers is very exciting.

E. faecalis strains = experiment: MIC against E. faecalis strains (Table M8); conditions: Enterococcus faecalis, E. faecalis 29212
S. pneumoniae strains = experiment: MIC against S. pneumoniae strains (Tables M7, M8); conditions: Streptococcus pneumoniae
From the text: CLSI standard procedures for broth dilution MIC determination were used. […] These genotypes can be constitutive or inducible.

EC882 E. coli imp = experiment: broth dilution MIC, E. coli EC882; conditions: Escherichia coli
From the text: as §2

BS1725 B. subtilis ermC = experiment: broth dilution MIC, B. subtilis BS1725; conditions: Bacillus subtilis
From the text: as §2

EC878 E. coli tolC = experiment: broth dilution MIC, E. coli EC878; conditions: Escherichia coli
From the text: as §2

[2] = system: BS1723 B. subtilis BS168 WT wild type; experiment: broth dilution MIC, B. subtilis BS1723; conditions: Bacillus subtilis
From the text: as §2

K. pneumoniae strains = experiment: MIC against K. pneumoniae strains (Table M8); conditions: Klebsiella pneumoniae, K. pneumoniae 10031
EC107 E. coli ATCC25922 = experiment: broth dilution MIC, E. coli EC107; conditions: Escherichia coli, read-out: MIC
From the text: as §2

H. influenzae strains = experiment: MIC against H. influenzae strains (Table M8); conditions: Haemophilus influenzae
Method in brief: as §1

[3] = ATCC29213, S. aureus ATCC 29213, read-out: MIC S. aureus (ATCC 29213)
[4] = S. aureus 506, read-out: MIC S. aureus (506)
[5] = S. aureus 1708, read-out: MIC S. aureus (1708)
[6] = USA300, S. aureus USA300, read-out: MIC S. aureus (USA300)
[7] = S. pneumoniae 160, read-out: MIC S. pneumonae (160)
[8] = S. pneumoniae 1509, read-out: MIC S. pneumoniae (1509)
[9] = S. pneumoniae 1533, read-out: MIC S. pneumoniae (1533)
[10] = S. pneumoniae 1537, read-out: MIC S. pneumoniae (1537)
[11] = S. pneumoniae 49619, read-out: MIC S. pneumoniae (49619)
[12] = H. influenzae 49247, read-out: MIC H. influenzae (49247)
[13] = H. influenzae 49766, read-out: MIC H. influenzae (49766)
[14] = BS1723 B. subtilis BS168 WT wild type, read-out: MIC

SMILES	MIC (S. aureus strains; [3])	MIC (S. aureus strains; [4])	MIC (S. aureus strains; [5])	MIC (S. aureus strains; [6])	MIC (A. baumannii strains)	MIC (E. coli strains)	MIC [1]	MIC (E. faecalis strains)	MIC (S. pneumoniae strains; [7])	MIC (S. pneumoniae strains; [8])	MIC (S. pneumoniae strains; [9])	MIC (S. pneumoniae strains; [10])	MIC (S. pneumoniae strains; [11])	MIC (EC882 E. coli imp)	MIC (BS1725 B. subtilis ermC; BS1725 B. subtilis ermC (+ery))	MIC (EC878 E. coli tolC)	MIC (K. pneumoniae strains)	MIC (EC107 E. coli ATCC25922)	MIC (H. influenzae strains; [12])	MIC (H. influenzae strains; [13])	other results
CC[C@H]1OC(=O)[C@H](C)[C@@H](O[C@H]2C[C@@](C)(OC)[C@@H](O)[C@H](C)O2)[C@H](C)[C@@H](O[C@@H]2O[C@H](C)C[C@H](N(C)C)[C@H]2O)[C@](C)(O)C[C@@H](C)C(=O)[C@H](C)[C@@H](O)[C@]1(C)O [Erythromycin, erythromycin, reference compound]	0.5 µg/mL (≈ 0.681 µM)	> 32 µg/mL	> 32 µg/mL	> 32 µg/mL	32 µg/mL (≈ 43.6 µM)	> 32 µg/mL	0.5 µg/mL (≈ 0.681 µM)	2 µg/mL (≈ 2.73 µM)	2 µg/mL (≈ 2.73 µM)	> 32 µg/mL	> 32 µg/mL	> 32 µg/mL	≤ 0.0625 µg/mL	2 µg/mL (≈ 2.73 µM)	> 32 µg/mL	2 µg/mL (≈ 2.73 µM)	8 µg/mL (≈ 10.9 µM)	> 32 µg/mL	2 µg/mL (≈ 2.73 µM)	8 µg/mL (≈ 10.9 µM)	MIC S. aureus (ATCC 29213) (S. aureus strains; S. aureus ATCC 29213): 0.25 µg/mL (≈ 0.341 µM); MIC (S. aureus strains; S. aureus 183, read-out: MIC S. aureus (183)): > 32 µg/mL; MIC A. baumannii (BAA747-1) (A. baumannii strains; A. baumannii BAA747-1): >32 µg/mL; MIC (BS1725 B. subtilis ermC; BS1725 B. subtilis ermC (−ery)): > 32 µg/mL; MIC [2]: 0.125 µg/mL (≈ 0.17 µM)
CC[C@H]1OC(=O)[C@H](C)C(=O)C[C@@H](O[C@@H]2OC(C)CC(N(C)C)C2O)[C@](C)(OC)C[C@@H](C)CN[C@H](C)[C@H]2N(CCCCn3cc(-c4cccc(N)c4)nn3)C(=O)O[C@]12C (stereo partly drawn) [FSM-10781]	> 32 µg/mL	> 32 µg/mL	> 32 µg/mL	> 32 µg/mL	32 µg/mL (≈ 39.3 µM)	32 µg/mL (≈ 39.3 µM)	> 32 µg/mL	8 µg/mL (≈ 9.83 µM)	2 µg/mL (≈ 2.46 µM)	> 32 µg/mL	> 32 µg/mL	> 32 µg/mL	8 µg/mL (≈ 9.83 µM)	0.25 µg/mL (≈ 0.307 µM)	> 32 µg/mL	1 µg/mL (≈ 1.23 µM)	8 µg/mL (≈ 9.83 µM)	16 µg/mL (≈ 19.7 µM)	1 µg/mL (≈ 1.23 µM)	8 µg/mL (≈ 9.83 µM)	MIC (BS1725 B. subtilis ermC; BS1725 B. subtilis ermC (−ery)): > 32 µg/mL; MIC [2, 14]: > 32 µg/mL
CC[C@H]1OC(=O)[C@H](C)C(=O)[C@H](C)[C@@H](O[C@@H]2OC(C)CC(N(C)C)C2O)[C@](C)(OC)C[C@@H](C)CN[C@H](C)[C@H]2N(CCCCn3cc(-c4nccs4)nn3)C(=O)O[C@]12C (stereo partly drawn) [FSM-20708]	2 µg/mL (≈ 2.44 µM)	> 32 µg/mL	2 µg/mL (≈ 2.44 µM)	2 µg/mL (≈ 2.44 µM)	16 µg/mL (≈ 19.5 µM)	4 µg/mL (≈ 4.88 µM)	2 µg/mL (≈ 2.44 µM)	0.5 µg/mL (≈ 0.61 µM)	0.125 µg/mL (≈ 0.152 µM)	4 µg/mL (≈ 4.88 µM)	> 32 µg/mL	> 32 µg/mL	0.5 µg/mL (≈ 0.61 µM)	0.0625 µg/mL (≈ 0.0762 µM)	16 µg/mL (≈ 19.5 µM)	1 µg/mL (≈ 1.22 µM)	2 µg/mL (≈ 2.44 µM)	8 µg/mL (≈ 9.76 µM)	0.25 µg/mL (≈ 0.305 µM)	2 µg/mL (≈ 2.44 µM)	MIC [2, 14]: 1 µg/mL (≈ 1.22 µM)
CC[C@H]1OC(=O)[C@H](C)C(=O)[C@H](C)[C@@H](O[C@@H]2OC(C)CC(N(C)C)C2O)[C@](C)(OC)C[C@@H](C)CN[C@H](C)[C@H]2N(CCCCn3cc(-c4cccnn4)nn3)C(=O)O[C@]12C (stereo partly drawn) [FSM-20710]	2 µg/mL (≈ 2.45 µM)	> 32 µg/mL	2 µg/mL (≈ 2.45 µM)	4 µg/mL (≈ 4.91 µM)	16 µg/mL (≈ 19.6 µM)	8 µg/mL (≈ 9.82 µM)	2 µg/mL (≈ 2.45 µM)	0.5 µg/mL (≈ 0.613 µM)	0.5 µg/mL (≈ 0.613 µM)	16 µg/mL (≈ 19.6 µM)	> 32 µg/mL	> 32 µg/mL	0.5 µg/mL (≈ 0.613 µM)	0.0625 µg/mL (≈ 0.0767 µM)	32 µg/mL (≈ 39.3 µM)	1 µg/mL (≈ 1.23 µM)	4 µg/mL (≈ 4.91 µM)	8 µg/mL (≈ 9.82 µM)	0.5 µg/mL (≈ 0.613 µM)	2 µg/mL (≈ 2.45 µM)	MIC [2, 14]: 2 µg/mL (≈ 2.45 µM)
CC[C@H]1OC(=O)[C@H](C)C(=O)[C@H](C)[C@@H](O[C@@H]2OC(C)CC(N(C)C)C2O)[C@](C)(OC)C[C@@H](C)CN[C@H](C)[C@H]2N(CCCCn3cc(-c4nc5ccccc5s4)nn3)C(=O)O[C@]12C (stereo partly drawn) [FSM-20711]	4 µg/mL (≈ 4.6 µM)	> 32 µg/mL	4 µg/mL (≈ 4.6 µM)	4 µg/mL (≈ 4.6 µM)	> 32 µg/mL	16 µg/mL (≈ 18.4 µM)	2 µg/mL (≈ 2.3 µM)	1 µg/mL (≈ 1.15 µM)	0.125 µg/mL (≈ 0.144 µM)	> 32 µg/mL	> 32 µg/mL	> 32 µg/mL	0.5 µg/mL (≈ 0.575 µM)	0.0312 µg/mL (≈ 0.0359 µM)	32 µg/mL (≈ 36.8 µM)	0.5 µg/mL (≈ 0.575 µM)	4 µg/mL (≈ 4.6 µM)	16 µg/mL (≈ 18.4 µM)	1 µg/mL (≈ 1.15 µM)	8 µg/mL (≈ 9.19 µM)	MIC [2, 14]: 2 µg/mL (≈ 2.3 µM)
CC[C@H]1OC(=O)[C@H](C)C(=O)[C@H](C)[C@@H](O[C@@H]2OC(C)CC(N(C)C)C2O)[C@](C)(OC)C[C@@H](C)CN(C(C)=O)[C@H](C)[C@H]2N(CCCCn3cc(-c4cccc(N)c4)nn3)C(=O)O[C@]12C (stereo partly drawn) [FSM-20767]	16 µg/mL (≈ 18.4 µM)	> 32 µg/mL	32 µg/mL (≈ 36.8 µM)	32 µg/mL (≈ 36.8 µM)	> 32 µg/mL	> 32 µg/mL	16 µg/mL (≈ 18.4 µM)	4 µg/mL (≈ 4.6 µM)	2 µg/mL (≈ 2.3 µM)	> 32 µg/mL	> 32 µg/mL	> 32 µg/mL	0.5 µg/mL (≈ 0.575 µM)	1 µg/mL (≈ 1.15 µM)	> 32 µg/mL	4 µg/mL (≈ 4.6 µM)	32 µg/mL (≈ 36.8 µM)	> 32 µg/mL	8 µg/mL (≈ 9.19 µM)	16 µg/mL (≈ 18.4 µM)	MIC (BS1725 B. subtilis ermC; BS1725 B. subtilis ermC (−ery)): 8 µg/mL (≈ 9.19 µM); MIC [2, 14]: 16 µg/mL (≈ 18.4 µM)
